# Measured values as given in patent US20130337564A1, “Treatment of Pluripotent Cells” (Janssen Biotech, Inc., priority 2012, published 2013).
# Columns and labels:
# [1] = tested on: Sox17 expression in human embryonic stem cell line H9; assay: Dose titration secondary assay: Sox17 intensity, H9; assay type: cell-based
# Experimental: (§1) It was important to confirm the activity of hits identified from primary screening and further analyze the range of activity by dose titration. New samples of a selective subset of primary screening hits were obtained as dry powders, solubilized to make fresh stock reagents, and diluted into secondary confirmation assays to evaluate effects on human embryonic stem cells.
# (§2) Culture of two human embryonic stem cells (H1 and H9) was conducted as described in Example 1. Colonies of cells were maintained in an undifferentiated, pluripotent state on Matrigel™ ([…]) coated polystyrene plastic, using a 1:30 dilution of Matrigel™ in DMEM:F12 to coat the surface. Cells were split by enzymatic passage every four days on average. Passage was performed by exposing cell monolayers to a solution of collagenase (1 mg/ml; Sigma-Aldrich) for 10 to 60 minutes at 37° C. followed by gentle scraping with a pipette tip to recover cell clusters. Clusters were allowed to sediment by gravity, then washed to remove residual collagenase. Cell clusters were split at a 1:3 ratio for maintenance culture or a 1:1 ratio for subsequent assay. The human embryonic stem cell lines were maintained at less than passage 50 and routinely evaluated for normal karyotypic phenotype and absence of mycoplasma contamination.
# (§3) Cell clusters of the H1 or H9 human embryonic stem cell lines used in the assay were evenly resuspended in culture medium and plated onto Matrigel™-coated 96-well Packard VIEWPLATES (PerkinElmer) in volumes of 100 μl/well. MEF conditioned medium supplemented with 8 ng/ml bFGF was used for initial plating and expansion. Daily feeding was conducted by aspirating spent culture medium from each well and replacing with an equal volume of fresh medium. Cultures were allowed to expand one to three days after plating prior to initiating assay. Plates were maintained at 37° C., 5% CO2 in a humidified box for the duration of assay.
# (§4) A subset of hits resulting from primary screening was used for follow-up study and subsequent secondary assays. Twenty compounds available as dry powders were solubilized as 10 mM stocks in DMSO and stored dessicated at […] until use Immediately prior to assay, compound stocks were diluted 1:1000 to make 10 μM test compound in DMEM:F12 base medium (Invitrogen) supplemented with 0.5% FCS (HyClone) and 100 ng/ml Activin A (R&D Biosystems). This was further diluted two-fold in series to make a seven point dilution curve for each compound, also in DMEM:F12 base medium with 0.5% FCS and 100 ng/ml Activin A.
# (§5) Assay was initiated by aspirating culture medium from cell monolayers in each well followed by three washes in PBS to remove residual growth factors and serum. Test volumes of 100 μl per well were added back containing medium with 0.5% FCS and different concentrations of inhibitor compounds with 100 ng/ml Activin A, without Wnt3a. Positive control wells contained the same base medium with 0.5% FCS and with 20 ng/ml Wnt3a (R&D Biosystems) in the absence of test compound. Negative control wells contained the same base medium with 0.5% FCS, in the absence of Activin A, Wnt3a, or test compound. Assay wells were aspirated and fed again with identical concentrations of test compound or control solutions on day 2 of assay. On days 3 and 4, all assay wells were aspirated and fed with DMEM:F12 supplemented with 2% FCS and 100 ng/ml Activin A in the absence of both test compound or Wnt3a. Parallel negative control wells were maintained on days 3 and 4 in DMEM:F12 base medium with 2% FCS.
# (§6) At the end of culture, cells in 96-well plates were washed twice with PBS then fixed with 4% paraformaldehyde at room temperature for 20 minutes, washed three times more with PBS, and then permeabilized with 0.5% Triton X-100 for 20 minutes at room temperature. After fixing and permeabilizing, cells were washed again three times with PBS and then blocked with 4% chicken serum (Invitrogen) in PBS for 30 minutes at room temperature. […]
# [2] = tested on: Sox17 expression in human embryonic stem cell line H1; assay: Dose titration secondary assay: Sox17 intensity, H1; assay type: cell-based
# Experimental: as §1, §2, §3, §4, §5, §6
SMILES,Sox17 Intensity ([1]; 0.156 μM compound),Sox17 Intensity ([1]; 0.313 μM compound),Sox17 Intensity ([1]; 0.625 μM compound),Sox17 Intensity ([1]; 1.25 μM compound),Sox17 Intensity ([1]; 2.5 μM compound),Sox17 Intensity ([1]; 5 μM compound),Sox17 Intensity ([1]; 10 μM compound),Sox17 Intensity ([2]; 0.156 μM compound),Sox17 Intensity ([2]; 0.313 μM compound),Sox17 Intensity ([2]; 0.625 μM compound),Sox17 Intensity ([2]; 1.25 μM compound),Sox17 Intensity ([2]; 2.5 μM compound),Sox17 Intensity ([2]; 5 μM compound),Sox17 Intensity ([2]; 10 μM compound)
"CCN1CCOCCOCCn2cc(c3ccccc32)C2=C(C(=O)NC2=O)c2cn(c3ccccc23)CC1 [Compound 103, 14-Ethyl-6,7,9,10,13,14,15,16-octahydro-12H,23H-5,26:17,22-di(metheno)dibenzo[k,q]pyrrolo[3,4-n][1,4,7,10,19]dioxatriacyclohenicosine-23,25(24H)-dione]",0.364,0.577,0.985,0.943,0.559,0.019,0.001,0.986,0.934,0.824,0.792,0.200,0.017,0.001
"CN1CCN(C)CCn2cc(c3ccccc32)C2=C(C(=O)NC2=O)c2cn(c3ccccc23)CC1 [Compound 111, 8,11-Dimethyl-6,7,8,9,10,11,12,13-octahydro-20H-5,23:14,19-di(metheno)dibenzo[k,q]pyrrolo[3,4-n][1,4,7,10]tetraazacyclooctadecine-20,22(21H)-dione]",0.054,0.080,0.268,0.332,0.432,0.543,0.822,0.628,0.667,0.755,0.819,0.887,0.846,0.330
"CN1CCOCCOCCN(C)CCn2cc(c3ccccc32)C2=C(C(=O)NC2=O)c2cn(c3ccccc23)CC1 [Compound 112, 12,21-Dimethyl-11,12,13,14,16,17,20,21,22,23-decahydro-1H,10H,19H-9,4:24,29-di(metheno)dibenzo[k,q]pyrrolo[3,4-n][1,4,7,10,19,22]dioxatetraazacyclotetracosine-1,3(2H)-dione]",0.186,0.342,0.563,0.936,1.146,1.127,0.759,0.922,1.006,1.136,1.159,0.928,0.728,0.701
"O=C1NC(=O)C2=C1c1cn(c3ccccc13)CCOCCOCCN(Cc1cccs1)CCn1cc2c2ccccc21 [Compound 133, 14-(2-Thienylmethyl)-6,7,9,10,13,14,15,16-octahydro-12H,23H-5,26:17,22-di(metheno)dibenzo[k,q]pyrrolo[3,4-n][1,4,7,10,19]dioxatriazacyclohenicosine-23,25(24H)-dione]",0.149,0.398,0.678,1.110,0.857,0.194,0.129,0.888,0.937,1.061,0.993,0.497,0.071,0.034
"O=C1NC(=O)C2=C1c1cn(c3ccccc13)CCOCCOCCN(Cc1cccc3ccccc13)CCn1cc2c2ccccc21 [Compound 136, 14-(Naphthalen-1-ylmethyl)-6,7,9,10,13,14,15,16-octahydro-12H,23H-5,26:17,22-di(metheno)dibenzo[k,q]pyrrolo[3,4-n][1,4,7,10,19]dioxatriazacyclohenicosine-23,25(24H)-dione]",0.125,0.129,0.212,0.202,0.209,0.154,0.129,0.666,0.859,0.887,0.783,0.373,0.141,0.054
